Where two headings read alike, the source gives them in different places. Marks after values point to notes of the source that are not given here.
Tests used:
[1] = Stability of conjugates in citrated plasma at 37° C. (half life time, HPLC fluorescence); format: in vitro ADME; settings: dog
In short: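 Conjugates at 2.55 μM incubated at 37° C in citrated plasma of several species, including human and dog. After TFA/acid extraction, released free camptothecin derivative (e.g. SN38) measured by reversed-phase C18 HPLC with fluorescence detection; half-life taken as time to 50 mol% release.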

[2] = Pharmacokinetic study in the dog (blood, HPLC fluorescence); format: in vivo
Method: Peripheral blood samples were taken at different times following infusion for pharmacokinetic analysis.
Blood samples (2.5 mL) were collected in 5 mL in trisodium citrate tubes (Sarstedt S-Monovette® 9NC) containing 2.5 mL of 5% TFA (v/v) and vortexed for 5 seconds before storage at −80° C. (for less than two weeks).
Samples were then analyzed after a TFA and acetonitrile extraction by an HPLC fluorescence method, described below. […] Whole blood samples were acidified with TFA to protect the ester link of the conjugate against hydrolysis and allow protein precipitation to improve conjugate and SN38 recovery.
Five hundred microliters of each sample were then placed in 1.5 mL micro-centrifuge tubes to and centrifuged at 16000×g 3 min at +4° C. […] Methanol (100 μL) was then immediately added and the mixture stirred vigorously (vortex) for 5 seconds. Samples were then centrifuged at 16000×g, 3 min at room temperature.
One hundred and fifty microliters of the supernatant was recovered for HPLC analysis.
DPV1047-BCH-SN38 and its metabolite SN38 were separated by high-performance liquid chromatography (HPLC Agilent 1100 with a fluorescence detector) using the following method: […]

[3] = tested on: HCT 116 human epithelial colon carcinoma cells; experiment: cells; format: cell-based
Method: Cytotoxic evaluation was performed by seeded cells for 24 h prior to the addition of the therapeutic compound. Cells were incubated for 48 h (37° C.) with different dilutions of the therapeutic compound. Cell viability was then assessed using the WST-1 assay (Roche). The results are expressed as mean cytotoxic concentrations (IC50 value or molar concentration that inhibits 50% of cell viability) that were estimated from sigmoid regression, using Graph Pad Prism 3.02 software.
HCT 116 (ATCC #: CCL-247): human epithelial colon carcinoma cells. Cells were cultured in Mc Coy's 5a medium+1.5 mM L-glutamine and 10% fetal bovine serum. Cells were plated at a density of 8000 cells/well in 96-well plates.

[4] = tested on: HCT 116 human colorectal carcinoma tumor
NCI-H460 lung carcinoma = experiment: Antitumor efficacy in NCI-H460 lung carcinoma model in nude mice; settings: Table 7, i.v. Q2D3 × 3 W
[5] = Table 3, 30 (cumulative 90) μmol/kg, i.v. bolus, Q4Dx3
[6] = Table 7, i.v. Q2D3 × 3 W, 25 μmol/kg

CCc1c2c(nc3ccc(OC(=O)[C@H]4CC[C@H](CNC(=O)C5CCC(CN6C(=O)CC(SC[C@H](N)C(=O)N[C@H](C(=O)N[C@@H](CCCCN)C(=O)N[C@@H](CCCNC(=N)N)C(=O)NCC(=O)N[C@@H](CC(C)C)C(=O)N[C@@H](CCCCN)C(=O)N[C@@H](CC(C)C)C(=O)N[C@@H](CCCNC(=N)N)C(=O)N[C@@H](Cc7c[nH]cn7)C(=O)N[C@H](C(=O)N[C@@H](CCCNC(=N)N)C(=O)N7CCC[C@H]7C(=O)N[C@@H](CCCNC(=N)N)C(=O)N[C@H](C(=O)N[C@H](C(=O)N[C@@H](CCCNC(=N)N)C(=O)N[C@@H](CCSC)C(=O)N[C@@H](CC(=O)O)C(=O)N[C@H](C(=O)O)C(C)C)[C@@H](C)O)C(C)C)C(C)C)C(C)C)C6=O)CC5)CC4)cc13)-c1cc3c(c(=O)n1C2)COC(=O)[C@]3(O)CC (single isomer, unassigned) [DPV1047-BCH-SN38]
half-life ([1]; DPV1047-linker-SN38, 2.55 μM, citrated plasma, read-out: Half life time, Dog plasma): 4.5 h
half-life ([1]; Table 10, SN38 conjugates, read-out: Dog Plasma Half life time): 4.33 h
half-life ([1]; Table 12, CPP-linker #5-SN38 conjugates incl. D conformation, read-out: Dog Plasma Half life time): 4 h
circulating half life time in the blood compared to DPV1047-MIC-SN38 ([2]; dog blood (FIG. 2)): longer
AUC of SN38 compared to DPV1047-MIC-SN38 ([2]; dog blood, equimolar dose (FIG. 1)): significantly greater
SN38 Cmax and AUC versus dose of the conjugate ([2]; dog blood, non-toxic doses (DPV1047-BCH-SN38 ≦20 mg/kg, DPV1047-MIC-SN38 ≦50 mg/kg)): increased linearly with the dose
IC50 ([3]; 24 h): 24 nM
IC50 ([3]; 48 h): 29 nM
clinical signs of toxicity such as body weight loss, diarrhea or alopecia ([4]; HCT 116 tumor-bearing nude mice, conjugates administered at their MADs): No clinical signs of toxicity
Minimal T/C (%) [4, 5]: 10%
TGI % [4, 5]: 80%
TGI (100-T/C %) ([4]; Table 5, Q1D5, 18 (cumulative 90) μmol/kg): 93*** %
Minimal T/C (%) ([4]; Table 5, Q1D5, 18 (cumulative 90) μmol/kg, i.v. bolus): 7%
Minimal T/C (%) ([4]; Table 5, Q2D3x3W, DPV1047-BCH-SN38 25 (225), irinotecan 48 (432) μmol/kg): 3%
TGI (100-T/C %) ([4]; Table 5, Q2D3x3W, DPV1047-BCH-SN38 25, irinotecan 48 μmol/kg): 97*** %
Optimal T/C % [4, 6]: 3.4%
TGI % [4, 6]: 96.6%
Minimal T/C (%) ([4]; mouse, in vivo): 10%
TGI (100-T/C %) ([4]; mouse, in vivo): 90*** %
Optimal T/C % (NCI-H460 lung carcinoma; 12.5 μmol/kg): 47.5%
TGI % (NCI-H460 lung carcinoma; 12.5 μmol/kg): 52.5%
Optimal T/C % (NCI-H460 lung carcinoma; 25 μmol/kg): 22.9%
TGI % (NCI-H460 lung carcinoma; 25 μmol/kg): 77.1%
